Values joined by “and” are separate entries in the source; they are usually repeats but may differ in a detail not shown here. Identical values can stand only once.

Series [1] has as its system Candida albicans (ATCC 10231). The series can be described thus: Broth microdilution MIC. The format is cell-based. To be noted: fluconazole 0.3125–640 µg/mL. The procedure: (§1) The antibacterial activities of the compounds were determined using the broth microdilution method, as per the advice of international standards. […] Standard bacterial strains Staphylococcus aureus (ATCC 29213), Enterococcus faecalis (ATCC 29212), Escherichia coli (ATCC 25922), Pseudomonas aeruginosa (ATCC 27853), and yeast Candida albicans (ATCC 10231), were previously stored at −80 °C then revived at room temperature. Microorganisms were inoculated using overnight broth cultures. Stock solutions of the samples studied at a concentration of 1000 µg/mL were prepared with dimethyl sulfoxide (DMSO). An amount of 100 µL of Mueller Hinton Broth (Liofilchem, Italy) were dispensed into all wells of 96-well microplates. […] Serial dilutions of 0.00048–1% DMSO were made into a column of the microplate to determine its antimicrobial activity. 0.5 McFarland standard in physiological saline from each microorganism strains were prepared and 20 µL of the prepared suspension was added to the wells. An amount of 100 µL Mueller Hinton Broth in a column of the microplate served as a negative control and another column of the microplate containing 100 µL of Mueller Hinton Broth with 20 µL of each microorganism added served as a growth control. As positive controls, ciprofloxacin was applied against bacterial strains at a concentration range of 0.03125–64 µg/mL, and fluconazole was used against Candida albicans at a concentration range of 0.3125–640 µg/mL. The plates were covered with parafilm, incubated at 36.5 °C in an aerobic environment for 24 h. After incubation, the optical density was measured at 620 nm. The first concentration without microbial growth was determined as MIC and experiments were repeated twice.

A further series has as its system Candida albicans. The series can be described thus: Well plate biofilm formation assay (crystal violet). The series is classed as cell-based. To be noted: over the concentration range given per compound (Table 4). The procedure: (§2) The well plate assay was utilized to test the effectiveness of compounds in inhibiting biofilms made by microorganisms. An amount of 100 μL of Brucella broth (Remel, Lenexa, KS, USA) containing 1% and 20% glucose (Biolife, Milan, Italy), were dispensed into the test wells. In the next step, 100 μL of compounds ranging from 0.244 to 1000 μg/mL were poured into the wells. […] Then, 0.5 McFarland standard in physiological saline from each microorganism strain were prepared and 20 μL of the prepared suspension was added to the wells. A column of the microplate containing 100 μL Brucella broth served as a negative control and another column of the microplate containing 100 μL Brucella with 20 μL of each microorganism added served as a growth control. As positive controls, ciprofloxacin was applied against bacterial strains at a concentration range of 0.03125-64 μg/mL, and fluconazole was used against Candida albicans at a concentration range of 0.3125-640 μg/mL. Plates were left to incubate at 36.5 °C for a day. The plates were emptied and then washed three times with 300 μL of deionized water. The wells were left to dry for half an hour. The next step was staining with 0.1% (w/v) violet dye ([…]), cleaning three times with deionized water, and drying at room temperature. The crystal violet adhering to the wall of the wells was dissolved with 95% ethanol, and the optical density was measured at 570 nm. The test was run two times, and the mean value was calculated. Biofilm preventing (%) = {(ODb - ODc)/ODb} × 100.

Another series concerns BEAS-2B cells. The series can be described thus: MTT cell viability assay, BEAS-2B. The series is classed as cell-based. To be noted: Homo sapiens, 48 h, mean ± SD (n = 3). The procedure: (§3) The anticancer potential of substituted theophylline derivatives was investigated using human lung carcinoma (A549, CCL-185) and cervical cancer (HeLa, CCL-2) cell lines obtained from the American Type Culture Collection (ATCC). To evaluate the selectivity of the tested compounds, cytotoxicity was also assessed in a healthy human bronchial epithelial cell line (BEAS-2B, ATCC CRL-9609). Cells were maintained in DMEM (Euroclone S.p.A., Pero, Italy supplemented with 10% fetal bovine serum (Sigma-Aldrich, St. Louis, MO, USA) and 1% penicillin–streptomycin (1%, Capricorn Scientific GmbH, Ebsdorfergrund, Germany at 37 °C in a humidified atmosphere containing 5% CO2. The theophylline-derived compounds (1a–1e) were dissolved in DMSO to prepare 100 mM stock solutions, which were then diluted with DMEM to obtain final working concentrations ranging from 3.125 µM to 100 µM. To evaluate cell viability, the MTT colorimetric assay was employed. Upon reaching logarithmic growth, A549, HeLa and BEAS-2B cells were seeded at a density of 7000 cells per well in 96-well microplates and allowed to attach for 24 h. Following this, cells were treated with different concentrations of the compounds and incubated for 48 h. After treatment, 100 µL of fresh medium and 20 µL of MTT reagent (5 mg/mL, Bio Basic Inc., Markham, ON, Canada) were added to each well, and cells were incubated for an additional 3 h. The resulting formazan crystals were solubilized with DMSO. Cell viability was calculated as the percentage of absorbance relative to untreated controls, and IC50 values were determined by nonlinear regression analysis using GraphPad Prism software, version 8.0 (GraphPad Software, San Diego, CA, USA. All experiments were performed in at least three independent replicates, and results are reported as mean ± SD. The percentage of inhibition was calculated based on the reduction in metabolic activity of the cells following compound treatment, as assessed by the MTT assay. The absorbance was measured at 570 nm using a microplate reader. The inhibition (%) was calculated using the following formula:Inhibition %=[1 − (Asample − Ablank)/[…]] × 100 To assess the tumor selectivity of the tested theophylline derivatives, the selectivity index (SI) was calculated for each compound. SI is defined as the ratio of the IC50 value in healthy (non-tumorigenic) cells to the IC50 value in cancer cells. In this study, IC50 values were determined for BEAS-2B (non-tumorigenic human bronchial epithelial cells) as a healthy control and for A549 (lung adenocarcinoma) and HeLa (cervical carcinoma) as tumor models. The SI was calculated according to the following equation:SI = [IC50, healthy/IC50, cancer]

Series [2] deals with A549 cells. Put plainly: MTT cell viability assay, A549. The series is classed as cell-based, human. To be noted: for IC50: MTT, 48 h, mean ± SD (n = 3). The procedure:
as §3

Series [3] deals with HeLa cells. Put plainly: MTT cell viability assay, HeLa. The format is cell-based, human. The procedure: as §3
Series [4] relates to A549 cells. The series can be described thus: RT-qPCR of apoptosis-related genes, A549. The series is classed as cell-based, human. To be noted: A549, IC50 concentration, 48 h, vs untreated control. The procedure: (§4) Total RNA was isolated from cells using the RNeasy Mini Kit (Qiagen GmbH, Hilden, Germany) according to the manufacturer’s instructions. RNA quality and quantity were evaluated spectrophotometrically. Subsequently, cDNA synthesis was performed using the iScript™ cDNA Synthesis Kit (Bio-Rad Laboratories, Hercules, CA, USA).
(§5) RT-qPCR reactions (LightCycler® 480 Instrument II (Roche Diagnostics, Mannheim, Germany) were carried out using SYBR™ Green PCR Master Mix (Applied Biosystems, Foster City, CA, USA) and gene-specific primers targeting pro-apoptotic genes (CASP3, CASP8, CASP9, BAX, BAK1, PUMA, NOXA, CYCS), anti-apoptotic genes (BCL2, BCL-XL, MCL1), cell cycle/stress-related genes (TP53, CDKN1A/p21, GADD45A, ATF4), and the reference gene GAPDH. The primer sequences used for each gene are presented in the Supplementary File (Figure S66).
(§6) All reactions were conducted in triplicate, and negative controls (no-template controls, NTC) were included in each run. Relative gene expression levels were analyzed using the 2^−ΔΔCt method, and results were normalized to control samples (control expression set as ‘1’) and expressed as fold change relative to controls.

Series [5] deals with HeLa cells. The series can be described thus: RT-qPCR of apoptosis-related genes, HeLa. To be noted: IC50 concentration, 48 h, vs untreated control. The series is classed as cell-based, human. The procedure: as §4, §5, §6
For series [6], the system named is A549 cells. The series can be described thus: ELISA of apoptosis-related proteins, A549. The series is classed as cell-based, human. To be noted: A549, IC50, 48 h, vs untreated controls. The procedure:
(§7) To validate the gene expression changes observed in the RT-qPCR analysis at the protein level, ELISA assays were conducted to measure the protein levels in A549 and HeLa cells. […] Following incubation, cells were washed with cold PBS and lysed using RIPA buffer supplemented with protease and phosphatase inhibitors. […] was removed by centrifugation at 14,000× g for 10 min. Total protein concentration in the cell lysates was determined spectrophotometrically using the BCA Protein Assay Kit (Thermo Scientific, Waltham, MA, USA). Protein concentrations were standardized to equal amounts across all samples prior to ELISA analysis. Commercially available Human ELISA Kit (Abcam, Cambridge, UK) were used to quantify Caspase-3, BAX, BCL-2, and Cytochrome C levels, and all assays were performed according to the manufacturers’ protocols. Absorbance was measured at 450 nm using a microplate reader. All experiments were conducted in triplicate. The results were normalized to the control group (control = 1) and expressed as fold change relative to untreated controls.

The subject of series [7] is HeLa cells. Put plainly: ELISA of apoptosis-related proteins, HeLa. The series is classed as cell-based, human. To be noted: IC50, 48 h, vs untreated controls. The procedure: as §7
In a further series the test system is Escherichia coli. The series can be described thus: Well plate biofilm formation assay (crystal violet). The format is cell-based. To be noted: over the concentration range given per compound (Table 4). The procedure:
as §2

For the next series, the system named is Pseudomonas aeruginosa. The series is described as above. The format is cell-based. To be noted: over the concentration range given per compound (Table 4). The procedure: as §2
A further series deals with Staphylococcus aureus. The description is as above. The format is cell-based. To be noted: over the concentration range given per compound (Table 4); 1c and 1e at 1000 µg/mL. The procedure: as §2
The next series has as its system Enterococcus faecalis. The description is as above. To be noted: over the concentration range given per compound (Table 4). The series is classed as cell-based. The procedure:
as §2

Series [8] relates to Enterococcus faecalis (ATCC 29212). Put plainly: Broth microdilution MIC. The format is cell-based. To be noted: ciprofloxacin 0.03125–64 µg/mL. The procedure: as §1
Series [9] relates to Escherichia coli (ATCC 25922). The series can be described thus: Broth microdilution MIC. The format is cell-based. To be noted: ciprofloxacin 0.03125–64 µg/mL. The procedure:
as §1

The subject of series [10] is Pseudomonas aeruginosa (ATCC 27853). The series can be described thus: Broth microdilution MIC. The format is cell-based. To be noted: ciprofloxacin 0.03125–64 µg/mL. The procedure:
as §1

Series [11] deals with Staphylococcus aureus (ATCC 29213). Put plainly: Broth microdilution MIC. The format is cell-based. To be noted: ciprofloxacin 0.03125–64 µg/mL. The procedure:
as §1

The next series has as its system CYP450. To be noted: cited from earlier work.

As for `OC(Cn1cncn1)(Cn1cncn1)c1ccc(F)cc1F` [Fluconazole, fluconazole, reference compound], in series [1], the “Microbial growth in positive control wells” value is reported as “no microbial growth was observed”. Also, in the series with Candida albicans, the “Antibiofilm activity Candida albicans” value amounted to 29.10%.
Turning to `Cn1c(=O)c2c(ncn2Cc2ccccc2C(F)(F)F)n(C)c1=O` [Compound 1a, 1,3-Dimethyl-7-(2-(trifluoromethyl)benzyl)-3,7-dihydro-1H-purine-2,6-dione], the IC50 in the series on BEAS-2B cells worked out at 100 ± 2 µM; in the series on A549 cells [2] (Homo sapiens, A549, 48 h), 15.7 ± 0.6 µM; in the series on A549 cells [2], 12.4 ± 0.7 µM; in the series on HeLa cells [3] (Homo sapiens, HeLa, 48 h, MTT, mean ± SD (n = 3)) it was 11.5 ± 1.2 µM. Also, the “SI (A549)” value with A549 cells [2] (ratio of IC50 in BEAS-2B cells to IC50 in A549 cells) was 8.06 ± 0.03 and 8.06 ± 0.10. Further, the “SI (HeLa)” value in the series with HeLa cells [3] (ratio of IC50 in BEAS-2B cells to IC50 in HeLa cells) was 8.70 ± 0.20. Also, the “Expression of anti-apoptotic genes (BCL2, BCL-XL, MCL1)” value in the series on A549 cells [4] and in the series with HeLa cells [5] was “notable downregulation” in each case. For the same molecule, the “Expression of pro-apoptotic genes (CASP3, CASP8, CASP9, BAX, BAK1, PUMA, NOXA, CYCS) and cell cycle/stress genes (TP53, CDKN1A, FAS, GADD45A, ATF4)” value in the series on A549 cells [4] and in the series with HeLa cells [5] was “significant upregulation” each time. Also, the “Protein level of BCL-2” value in the series with A549 cells [6] and in the series on HeLa cells [7] was “marked decrease” throughout. The “Protein levels of Caspase-3, BAX and Cytochrome C” value in the series on A549 cells [6] and in the series on HeLa cells [7] was “significant increases” throughout. Further, the “Antibiofilm activity Escherichia coli” value with Escherichia coli was “did not show antibiofilm activity and –”. Moreover, the “Antibiofilm activity Pseudomonas aeruginosa” value with Pseudomonas aeruginosa was “did not show antibiofilm activity and –”. Also, the “Antibiofilm activity Staphylococcus aureus” value in the series on Staphylococcus aureus is “did not show antibiofilm activity and –”. Also, the “Antibiofilm activity Candida albicans” value in the series with Candida albicans is reported as 0.5–13.7%. Moreover, the “Antibiofilm activity Enterococcus faecalis” value in the series on Enterococcus faecalis is 1.08–14.7%.
As for `O=C(O)c1cn(C2CC2)c2cc(N3CCNCC3)c(F)cc2c1=O` [Ciprofloxacin, ciprofloxacin, reference compound], the “Microbial growth in positive control wells” value in series [8], in series [9], in series [10] and in [11] was “no microbial growth was observed” each time. Also, the “Antibiofilm activity Escherichia coli” value with Escherichia coli worked out at 36.67%. Moreover, the “Antibiofilm activity Pseudomonas aeruginosa” value in the series with Pseudomonas aeruginosa came to 35.79%. Moreover, the “Antibiofilm activity Staphylococcus aureus” value in the series on Staphylococcus aureus is 50.56%. Besides, the “Antibiofilm activity Enterococcus faecalis” value in the series with Enterococcus faecalis is given as 18.11%.
For `C[C@]12CC[C@H](O)CC1=CC[C@@H]1[C@@H]2CC[C@]2(C)C(c3cccnc3)=CC[C@@H]12` [Abiraterone], the “binding properties (docking)” value in the series with CYP450 is -10.3 kcal/mol.

These data come from publication PMC12467740, “Synthesis, Characterization, and Screening Anticancer—Antibiofilm Activities of Theophylline Derivatives Containing CF3/OCF3 Moiety” (Biology, 2025).
